Experimental data: patent US9924714B2, “Impregnatable matrix of plant, animal or synthetic origin or mixtures of same, containing a uniformly distributed antimicrobial compound, method for impregnating said matrix with a compound, and use thereof in the production of antimicrobial elements” (COMPAÑIA MINERA SAN GERONIMO, priority 2013, dated 2018)
Where “and” joins values, the source holds several entries; their conditions need not be identical. Equal entries are not always repeated.

Tests used:
Format in all cases: cell-based
[1] = tested on: Enterococcus faecium ISP133/04; experiment: Disc growth inhibition halo test (Example 2); conditions: commercial disc 30 μg Km
[2] = tested on: Escherichia coli ATCC25922; experiment: Inhibition halos of fabrics after washing (Example 7); conditions: commercial disc 30 μg Km; in mm
Description: (§1) This example established qualitatively the antibacterial activity of matrixes in thin fabric (Fabric 1) and thick fabric (Fabric 2) embedded with the product, following the procedure described herein, and after subjected to washing. In order to do this, there were taken pieces of 2×2 cm from both fabrics, cut and washed for 2 hours with stirring using commercial laundry detergent. Subsequently, the washed fabric pieces which have the new product are dried in an oven at 40° C. for 3 hours and placed on the background lawn. In order to generate the background lawn, it was prepared a bacterial culture of 16 hours, with the strain of interest, it was performed a 1/30 dilution of the culture with fresh medium and incubated under stirring at 37° C. until reaching the exponential growth phase (D0600 nm 0.4-0.5). It was taken an aliquot of 100 μL of the culture in exponential phase, and deposited in 4 mL of Mueller-Hinton soft agar at 0.8% (previously melted and stabilized at 50° C.). The mature was deposited on a Petri dish with 20 mL of Mueller-Hinton agar base. […]
(§2) Experiments were performed in triplicate and in three independent events. From the treated plates, it was measured the zone of inhibition generated by each control and fabrics embedded with the proposed compound, which is summarized in Table 7.

[3] = tested on: Staphylococcus aureus ATCC25923; experiment: as above; conditions: commercial disc 30 μg Km; in mm
Description: as §1, §2

[4] = tested on: Enterobacter aerogenes ATCC13048; experiment: Disc growth inhibition halo test (Example 2); conditions: commercial disc 30 μg Km
[5] = tested on: Enterococcus faecalis ATCC29212; experiment: Disc growth inhibition halo test (Example 2); conditions: commercial disc 30 μg Km
[6] = tested on: Streptococcus pneumoniae ATCC14325; experiment: Disc growth inhibition halo test (Example 2); conditions: commercial disc 30 μg Km
[7] = tested on: Escherichia coli ATCC25922; experiment: Disc growth inhibition halo test (Example 2); conditions: commercial disc 30 μg Km
[8] = tested on: Streptococcus pneumoniae ATCC14325; experiment: Thick cloth growth inhibition test (Example 6); conditions: commercial disc 30 μg Km; in mm
Description: (§3) This example determined qualitatively the antibacterial effect of the copper solution proposed, embedded in a matrix of thick fabric which was prepared following the procedure of the present invention. Pieces of cloth of about 2×2 cm were prepared and embedded with the product and then were deposited on a background lawn of 12 different bacteria strains.
(§4) In order to do this, it was prepared a bacterial culture of 16 hours, with the strain of interest, it was performed a 1/30 dilution of the culture with fresh medium and incubated under stirring at 37° C. until reaching the exponential growth phase (D0600 nm 0.4-0.5). It was taken an aliquot of 100 μL of the culture in exponential phase, and deposited in 4 mL of Mueller-Hinton soft agar at 0.8% (previously melted and stabilized at 50° C.). The mixture was deposited on a Petri dish with 20 mL of Mueller-Hinton agar base. Once the agar was gelled, each of the discs with different amounts of the test compound were deposited on the background lawn, and incubated at 37° C. during 48 hours.
(§5) Experiments were performed in triplicate in independently, using as negative control discs with the solvent DMSO alone and cloth without the product of study. As positive control were used commercial discs used with 30 μg of antibiotic Kanamycin (Km).

[9] = tested on: Enterococcus faecalis ATCC29212; experiment: Thick cloth growth inhibition test (Example 6); conditions: commercial disc 30 μg Km; in mm
Description: as §3, §4, §5

[10] = tested on: Enterococcus faecium ISP133/04; experiment: Thick cloth growth inhibition test (Example 6); conditions: commercial disc 30 μg Km; in mm
Description: as §3, §4, §5

[11] = tested on: Streptococcus pyogenes ATCC2367; experiment: Thick cloth growth inhibition test (Example 6); conditions: commercial disc 30 μg Km; in mm
Description: as §3, §4, §5

[12] = tested on: Pseudomonas aeruginosa PAOI; experiment: Thick cloth growth inhibition test (Example 6); conditions: commercial disc 30 μg Km; in mm
Description: as §3, §4, §5

[13] = tested on: Escherichia coli ATCC25922; experiment: Thick cloth growth inhibition test (Example 6); conditions: commercial disc 30 μg Km; in mm
Description: as §3, §4, §5

[14] = tested on: Enterobacter aerogenes ATCC13048; experiment: Thick cloth growth inhibition test (Example 6); conditions: commercial disc 30 μg Km; in mm
Description: as §3, §4, §5

[15] = tested on: Acinetobacter baumanii UPP4 56; experiment: Thick cloth growth inhibition test (Example 6); conditions: commercial disc 30 μg Km
Description: as §3, §4, §5

[16] = tested on: Staphylococcus epidermidis ATCC2S923; experiment: Thick cloth growth inhibition test (Example 6); conditions: commercial disc 30 μg Km; in mm
Description: as §3, §4, §5

[17] = tested on: Staphylococcus aureus ATCC25923; experiment: Thick cloth growth inhibition test (Example 6); conditions: commercial disc 30 μg Km; in mm
Description: as §3, §4, §5

[18] = tested on: Klebsiella pneumoniae ATCC4352; experiment: Thick cloth growth inhibition test (Example 6); conditions: commercial disc 30 μg Km; in mm
Description: as §3, §4, §5

[19] = tested on: Citrobacter freundii ISP1949/99; experiment: Thick cloth growth inhibition test (Example 6); conditions: commercial disc 30 μg Km
Description: as §3, §4, §5

[20] = tested on: Citrobacter freundii ISP1949/99; experiment: Disc growth inhibition halo test (Example 2); conditions: commercial disc 30 μg Km
[21] = tested on: Staphylococcus aureus ATCC25923; experiment: Disc growth inhibition halo test (Example 2); conditions: commercial disc 30 μg Km
[22] = tested on: Staphylococcus epidermidis ATCC25923; experiment: Disc growth inhibition halo test (Example 2); conditions: commercial disc 30 μg Km
[23] = tested on: Pseudomonas aeruginosa PAOI; experiment: Disc growth inhibition halo test (Example 2); conditions: commercial disc 30 μg Km
[24] = tested on: Streptococcus pyogenes ATCC2367; experiment: Disc growth inhibition halo test (Example 2); conditions: commercial disc 30 μg Km

`NC[C@H]1O[C@H](O[C@H]2[C@H](O)[C@@H](O[C@H]3O[C@H](CO)[C@@H](O)[C@H](N)[C@H]3O)[C@H](N)C[C@@H]2N)[C@H](O)[C@@H](O)[C@@H]1O` [Km, Kanamycin] was tested, and the Growth inhibition zone [1] was 12.5 ± 1.2 mm and 9 ± 0.7 mm and 11.0 mm, the Growth inhibition zone [2] was 20.6 ± 0.6 and the Growth inhibition zone [3] was 18.0 ± 1.4. The Growth inhibition zone [4] was 14 + 0.5 mm and 15 ± 0.4 mm and 16 ± 0.4 mm and 19.0 ± 0.7 mm, the Growth inhibition zone [5] was 10 mm and 15 + 0.6 mm and 15 ± 0.6 mm and 10.5 ± 0.2 mm and the Growth inhibition zone [6] was 15 ± 0.8 mm and 12.5 ± 1.2 mm and 11 ± 1 mm and 11.5 ± 0.8 mm. For the same compound, the Growth inhibition zone [7] was 18 ± 1.8 mm and 15 ± 0.2 mm and 18 ± 0.7 mm and 20.0 ± 0.7 mm, the Growth inhibition zone [8] was 10.0 ± 0.2 and the Growth inhibition zone [9] was 14.0 ± 1.0. The Growth inhibition zone [10] was 11.0 ± 0.8, the Growth inhibition zone [11] was 6.0 ± 1.0 and the Growth inhibition zone [12] was 7.0 ± 0.5. The Growth inhibition zone [13] was 19.0 ± 0.5, the Growth inhibition zone [14] was 12.0 ± 0.5 and the Growth inhibition zone [15] was 5 mm. It also gave a Growth inhibition zone [16] of 24.0 ± 1.0, a Growth inhibition zone [17] of 18.0 ± 0.5 and a Growth inhibition zone [18] of 18.0 ± 1.0. The Growth inhibition zone [19] was 17.0 ± 0.3, the Growth inhibition zone [20] was 19 ± 0.3 mm and 12 ± 0.5 mm and 15 ± 0.5 mm and 19.0 ± 0.2 mm and the Growth inhibition zone [21] was 21 ± 2 mm and 20 ± 0.8 mm and 15 ± 0.5 mm and 19.0 mm. The Growth inhibition zone [22] was 16 + 0.5 mm and 14 + 0.7 mm and 18 ± 0.7 mm and 18.5 ± 3.5 mm, the Growth inhibition zone [23] was 7 ± 1.0 mm and 9 ± 0.7 mm and 7 + 0.7 mm and 7.0 ± 1.4 mm and the Growth inhibition zone [24] was 5 mm and 5.0 mm.
